Assay results as given in PubChem BioAssay AID493003 (Sanford-Burnham Center for Chemical Genomics, 2010).
Calls of active or inactive are those of the source. No rule for the calls is given here.

What follows are compounds tested on S. cerevisiae tim10-1 mutant growth, luminescence (assay: growth inhibitors of tim10-1 mutant yeast, dose response, luminescence, S. cerevisiae, uHTS hits (AID 493003);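 also: yeast growth measured after about 22 hours at 25 °C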).

| SMILES | IC50 |
| --- | --- |
| Cc1nc2ccccn2c1P(=S)(N1CCCCC1)N1CCCCC1 | 39.7 µM |
| Cc1nonc1C(=O)N/N=C/c1ccc(O)cc1 | 30.3 µM |
| O=C(NC(=S)NCc1ccccc1)c1ccccc1F | 66.5 µM |
| N/C(Cc1cccs1)=N\OC(=O)COc1ccc(Cl)cc1Cl | 24.7 µM |
| Cn1c2ccccc2c(=O)c2ccc(C#CC3(N)CCCCC3)cc21 | 27.1 µM |
| O=C(Nc1ccccc1)c1cccnc1NCCc1ccccc1 | 73.3 µM |
| O=C(NCCC1=CCCCC1)NC12CC3CC(CC(C3)C1)C2 | 50.7 µM |
| COc1ccc(NC2CCN(C3CC(=O)N(c4ccc(F)c(Cl)c4)C3=O)CC2)cc1 (stereo not drawn) | 10.4 µM |
| CCOC(=O)c1ccc(N2C(=O)C=CC2=O)cc1 | 2.75 µM |
| Nc1nc(Cl)cc(N2CCC(c3cc(-c4ccc(Cl)cc4)n[nH]3)CC2)n1 | 17.8 µM |
| COc1cc2c(cc1OC)CN(C(=O)c1ccc(-c3ccccc3)cc1)CC2 | 47.3 µM |
| CCn1nc(C)c(C(=O)Nc2cc(Oc3ccc(Cl)cc3)cc([N+](=O)[O-])c2)c1C | 43.1 µM |
| COc1ccc(-c2sc3cc4c(cc3c2C#CC2(N)CCCCC2)OCO4)cc1 | 12.5 µM |
| CCOC(=O)c1c(-c2ccccc2)csc1NC(=S)NC | 44.7 µM |
| N/C(=N\OC(=O)c1cccc(Cl)c1)c1ccccn1 | 26.7 µM |
| CCCn1c(CC)nc([N+](=O)[O-])c1S(=O)(=O)c1ccccc1 | 13.1 µM |
| O=C(CN1CCN(S(=O)(=O)c2ccc(F)cc2)CC1)Nc1ccc(Cl)c(C(F)(F)F)c1 | 18.8 µM |
| CCNc1ccc(Br)cc(C(=O)/C=C/c2c(Cl)cccc2Cl)c1=O | 22.1 µM |
| CCOC(=O)c1sc(-c2ccc(Br)cc2)cc1N | 18.6 µM |
| Cc1onc(-c2ccc3c(c2)OCO3)c1-c1ccc2[nH]ccc2c1 | 14.3 µM |
| CC[C@@H]1CC=C[C@H]2[C@H]1C(=O)N(Cc1ccccc1)[C@H]2c1ccoc1 | 7.61 µM |

| SMILES | IC50 |
| --- | --- |
| Cc1ccc(F)c([C@H]2C3C=CCC(c4ccccc4)C3C(=O)N2Cc2ccccc2)c1 (stereo partly drawn) | 15.2 µM |
| COc1ccc(/C(N)=N/OC(=O)c2cccs2)cc1OC | 42.8 µM |
| COc1ccc(-c2cn3c(C)c(C(=O)N4CCc5ccccc5C4)sc3n2)cc1 | 40 µM |
| O=C(Nc1cccc(N2C(=O)C=CC2=O)c1)c1cccs1 | 4.4 µM |
| Cc1ccc(/C(N)=N/OC(=O)C(C)c2ccc([N+](=O)[O-])cc2)cc1 (stereo not drawn) | 9.99 µM |
| Cn1c2ccccc2c(=O)c2ccc(C#CC3(O)CCCCC3)cc21 | 24.5 µM |
| Nc1c(C(=O)Nc2ccccc2)c2nc3ccccc3nc2n1CCCN1CCOCC1 | 8.41 µM |
| CCOC(=O)c1sc(=S)n(Cc2ccccc2)c1N | 50.4 µM |
| Cc1ccc(C(=O)NC(=S)Nc2ccccc2C)cc1 | 44.5 µM |
| CCOC(=O)N1CCN(C(=O)c2ccc(CSc3ccc(Cl)cc3)cc2)CC1 | 74.1 µM |
| O=C(CS(=O)(=O)c1ccccc1)Nc1nc(-c2ccccc2)cs1 | 24.2 µM |
| O=C(Nc1cccc(C(=O)N2CCN(c3cccc(Cl)c3)CC2)c1)c1ccccc1 | 35.2 µM |
| CC(C)C(=O)N1CCN(c2ccccc2NC(=O)c2ccc([N+](=O)[O-])o2)CC1 | 11.5 µM |
| COc1cccc(N2[C@@H](CC(C)=O)c3ccc(/C=C/C(C)=O)cc3S2(=O)=O)c1 | 18.3 µM |
| COc1cc(N=c2ssnc2Cl)c(OC)cc1Cl | 13 µM |
| Cc1ccsc1C1Nc2ccccc2-c2nc3ccccc3n21 (stereo not drawn) | 28.5 µM |
| CCN(CC)c1ccc(NC(=O)CCCCCN2C(=O)c3ccccc3C2=O)cc1 | 14.3 µM |
| O=C(CSCC(=O)OCn1nnc2ccccc2c1=O)Nc1ccc(Cl)cc1 | 20.2 µM |
| NC(=NCCCCCCN=C(N)/N=C(\N)Nc1ccc(Cl)cc1)/N=C(\N)Nc1ccc(Cl)cc1 | 12.1 µM |
| O=C(NC(=S)Nc1cccc(C(F)(F)F)c1)c1csnn1 | 26 µM |
| Cc1c(C)n(C)c2ccc(C(=O)Nc3cccc4ccccc34)cc12 | > 100 µM (inactive) |

| SMILES | IC50 |
| --- | --- |
| CC1CCCCN1S(=O)(=O)c1ccc(NC(=O)c2ccco2)cc1 (stereo not drawn) | 22.7 µM |
| CN1CCN(c2ccccc2NC(=O)c2ccc(-c3ccc(Cl)c(Cl)c3)o2)CC1 | 15.1 µM |
| N#C/C(=N/Nc1ccc(OC(F)(F)F)cc1)C(N)=S | 5.24 µM |
| COc1ccccc1N1C(=O)CC(Sc2n[nH]c(-c3cccc(C)c3)n2)C1=O (stereo not drawn) | 7.68 µM |
| CCCN1C(=O)/C(=N\OCC(=O)Nc2ccc(C(C)C)cc2)c2ccccc21 | 60.9 µM |
| Cc1cccc(C(=O)CC(=O)c2cc(Cl)ccc2O)c1 | 19 µM |
| COc1ccc2nc(/N=C(\N)NC(=O)Nc3ccccc3)nc(C)c2c1 | 47.3 µM |
| Cc1cc(Cl)ccc1OCC(=O)Nc1nc(-c2cccs2)cs1 | > 100 µM (inactive) |
| O=C(c1cc(COc2cccc(C(F)(F)F)c2)on1)N1C[C@@H]2CCC[C@H]1C2 | 27.3 µM |
| O=C1CC(Sc2nnc(-c3ccccc3)o2)C(=O)N1c1ccccc1 (stereo not drawn) | 28.3 µM |
| Oc1ccc(-c2nccc(-c3ccc(Cl)cc3Cl)n2)cc1 | 37.1 µM |
| COc1ccc(-c2nn(-c3ccccc3)cc2/C=C(\CC(=O)O)c2nc3ccccc3s2)cc1OC | 60.8 µM |
| CN(C)CCCN(C(=O)c1cc2cc([N+](=O)[O-])ccc2s1)c1nc2cc3c(cc2s1)OCCO3 | 13.7 µM |
| Cc1ccc(/C(N)=N/OC(=O)N2CCOCC2)cc1 | 24.5 µM |
| Cc1cc(C)n(-c2nnc(NC34CC5CC(CC(C5)C3)C4)nn2)n1 | 46.4 µM |
| Cc1nn2c(c1-c1ccc(Cl)cc1)N=C(c1ccco1)CC2c1ccccc1 (stereo not drawn) | 23.2 µM |
| CCN(CC)C1CC(=O)N(c2cccc(Cl)c2)C1=O (stereo not drawn) | 9.25 µM |
| C/C(=N\NC(=O)c1cc(-c2cccs2)nc2ccccc12)c1ccccn1 | 28.7 µM |
| O=S(=O)(Nc1cccc2cccnc12)c1ccc(S(=O)(=O)N2CCCC2)cc1 | 41.2 µM |
| Nc1ccc2oc(-c3cccc(Br)c3)nc2c1 | 28.3 µM |
| COc1ccc(/C=N/n2c(=S)n(C)c3ccccc32)cc1OC | 36.1 µM |

| SMILES | IC50 |
| --- | --- |
| COc1ccc(C(=O)Nc2ccc(S(=O)(=O)N3CCCCC3)cc2)cc1OC | 27.9 µM |
| COc1ccc(-c2nncnn2)cc1 | 8.84 µM |
| CCOc1ccccc1C(=O)Nc1cc(OC)ccc1OC | 35.1 µM |
| Clc1ccc(-c2nc3cnccn3c2Nc2ccc3c(c2)OCO3)cc1 | 29.9 µM |
| Nc1cc(Cl)ccc1Oc1ccc2ccccc2c1 | 23.1 µM |
| COc1ccc(C(=O)C(CN2CCCC2)c2ccccc2)cc1 (stereo not drawn) | 19 µM |
| Cc1cc(NC(=O)C2CC2)ncc1NC(=O)C12CC3CC(CC(C3)C1)C2 | > 100 µM (inactive) |
| S=C(NCCSCc1ccc(Cl)cc1)Nc1ccccc1 | 19.5 µM |
| C=CCNC(=S)NNc1nc2c(c(=O)[nH]1)C1(CCCCC1)Cc1ccccc1-2 | 40.3 µM |
| COc1ccc(C(=O)Nc2ccc(-n3nncc3C(C)(C)C)cc2)cc1 | 16.4 µM |
| Cc1[nH]nc2c1-c1nc3ccccc3nc1C(C)(C)C2 | 23.8 µM |
| O=C(O/N=C(/c1ccccc1)c1ccncc1)c1ccccc1[N+](=O)[O-] | 29 µM |
| CCc1nn(-c2ccccc2)c(=S)c2ccccc12 | 22.8 µM |
| COc1ccc(C/C(=N\OC(C)=O)c2ccc(OC)cc2)cc1 | 25.7 µM |
| Cc1noc(NS(=O)(=O)c2ccc(NC(=O)Nc3ccc(Cl)c(Cl)c3)cc2)c1C | 43.1 µM |
| CCNC(=S)N/N=C/c1ccc(-c2ccccc2)o1 | 34.8 µM |
| O=[N+]([O-])/C(C(Cl)=C(Cl)Cl)=C(\Sc1ccccc1)N1CCCCC1 | 53 µM |
| N/C(=N\OC(=O)CCCOc1ccc(Cl)cc1Cl)c1ccccn1 | 34 µM |
| COC(=O)c1ccc(N2C(=O)CC(N(C)CCc3ccc(OC)c(OC)c3)C2=O)cc1 (stereo not drawn) | 18.6 µM |
| CCN1C(=O)C(CC(=O)Nc2ccc(OC)cc2)N(CCc2ccc(OC)cc2)C1=S (stereo not drawn) | 32.2 µM |
